According to patent US20150110907A1, “METHOD OF TESTING THE ACTIVITY OF A POTENTIALLY ACTIVE SUBSTANCE TO INHIBIT THE ENZYMATIC ACTIVITY OF PHOSPHOLIPASE A2” (BASF Beauty Care Solutions France S.A.S., priority 2002, published 2015):
Where two headings read alike, the source gives them in different places.

Target: T1, PLA2 of type I originating from pig pancreas (Sus scrofa, UniProt P00592)
T1 construct: originates from pig pancreas (enzyme of type I); from tissue; host or cells: pig pancreas
Test: Acellular in vitro inhibition of PLA2 of type I, determination of free fatty acids
Type: biochemical
Conditions: for inhibition at 1000 µM: 1 mM; for Inhibition (%) Product diluted at 1/100 in demineralized water: initial solution diluted at 1/100 in demineralized water; for Inhibition by substance tested pure (%): percentage inhibition with respect to the control
Method: The study of the inhibition of phospholipase A2 (PLA2) is carried out in an acellular in vitro model which aims to be a reflection, near as possible, of the situation encountered in vivo.
The PLA2s of type I and of type II are used in vitro, in a model comprising: • 1) a substrate selected from the ester derivatives of arachidonic acid (such as β-arachidonoyl γ-palmitoyl L-α-phosphatidylcholine, which is a phospholipid containing arachidonic acid in SN2 position, site hydrolyzed by the phospholipase A2) which specifically is the fatty add involved in the synthesis of the mediators of the inflammation, • 2) a bivalent ion, playing the role of catalyst (such as calcium), • 3) an activator, which is indispensable for the activity of the enzyme, playing the role of solubilizer of the substrate in the reaction medium and enabling promoting the enzyme-substrate interaction (preferably sodium deoxycholate).
The enzyme in the presence of its cofactor is incubated for a determined period of time (e.g. about 15 minutes) with the inhibitor, and then a second incubation is carried out for (e.g. about 20 minutes) in the presence of the substrate which is preferably β-arachidonoyl γ-palmitoyl L-α-phosphatidylcholine and of the activator, which is preferably sodium deoxycholate.
At the end of this incubation, a determination of the non-esterified fatty acids is made on the reaction medium by an enzymatic technique that it is for example possible to follow by colorimetry at a defined wavelength.
In parallel, a control corresponding to the activity of the phospholipase A2 in the absence of inhibitor is carried out.
The PLA2 in aqueous solution (35 Units/ml), is placed in the presence of 3 mM β-arachidonoyl γ-palmitoyl L-α-phosphatidylcholine, which is a phospholipid containing, in SN2 position, site hydrolyzed by the phospholipase A2, arachidonic add, which is specifically an important fatty acid involved in the synthesis of the mediators of inflammation,
a) the enzyme in the presence of the cofactor (calcium) is incubated for 15 minutes at ambient temperature (20° C.) with the inhibitor;
b) then, a second incubation of 20 minutes is made in the presence of β-arachidonoyl γ-palmitoyl L-α-phosphatidylcholine (3 mM) and sodium deoxycholate (1.6 mM).
At the end of this incubation, a determination of the free fatty acids, thus non-esterified free fatty acids, is made on the reaction medium by a classical enzymatic technique which is well-known to the person skilled in the art, that it is possible to follow by colorimetry, e.g. here at 550 nm,
The anti-PLA2 activity of increasing concentrations of the product selected was measured over three different batches of starting material. Each determination was made in triplicate, […]

[1] = Table VII, read-out: percentage inhibition with respect to control
[2] = Table VII, 10 mM, read-out: percentage inhibition with respect to control
[3] = non-diluted, initial concentrations: aristolochic acid 2 mM, p-bromophenacyl bromide 10 mM, nordihydroguaiaretic acid 5 mM

T1 sequence (P00592 23-146): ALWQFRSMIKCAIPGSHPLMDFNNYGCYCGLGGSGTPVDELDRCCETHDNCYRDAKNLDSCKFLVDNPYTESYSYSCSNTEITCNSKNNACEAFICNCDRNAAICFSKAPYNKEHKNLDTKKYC

## C[C@]12CCC(=O)C=C1CC[C@@H]1[C@@H]2C(=O)C[C@@]2(C)[C@H]1CC[C@]2(O)C(=O)CO [Cortisone]
Table VII, 10 mM
  percentage inhibition with respect to control: 0%

## O=C(O)Cc1ccccc1Nc1c(Cl)cccc1Cl [Diclofenac]
[1]
  inhibition at 1000 µM: 8%
[2]
  inhibition at 10000 µM: 29.8%

## O=c1c(-c2ccc(O)cc2)coc2cc(O)cc(O)c12 [genistein]
Commercial 1% genistein solution
  inhibition of the PLA2: 28.79%

## CC(Cc1ccc(O)c(O)c1)C(C)Cc1ccc(O)c(O)c1 (centres unmarked) [nordihydroguaiaretic acid]
  Inhibition (%) Product diluted at 1/100 in demineralized water: 8.8% ± 0.8
[3]
  Inhibition (%) Non-diluted product: 97.3% ± 13.2

## CC(=O)Oc1ccccc1C(=O)O [Aspirin]
[1]
  inhibition at 1000 µM: 3.5%
[2]
  inhibition at 10000 µM: 7%

## O=C(CBr)c1ccc(Br)cc1 [p-bromophenacyl bromide]
  Inhibition (%) Product diluted at 1/100 in demineralized water: 4.5% ± 2.3
non-diluted, initial concentrations: aristolochic acid 2 mM, p-bromophenacyl bromide 10 mM, nordihydroguaiaretic acid 5 mM, read-out: Inhibition (%) Non-diluted product
  inhibition at 10000 µM: 29.9%

## CC(C)Cc1ccc(C(C)C(=O)O)cc1 (centres unmarked) [Ibuprofen]
[1]
  inhibition at 1000 µM: 6.9%
[2]
  inhibition at 10000 µM: 40.3%

## C[C@]12C=CC(=O)C=C1CC[C@@H]1[C@@H]2[C@@H](O)C[C@@]2(C)[C@H]1CC[C@]2(O)C(=O)CO [Prednisolone]
[2]
  inhibition at 10000 µM: 6.3%

## COc1cccc2c1cc([N+](=O)[O-])c1c(C(=O)O)cc3c(c12)OCO3 [Aristolochic acid, 8-methoxy-6-nitrophenanthro(3,4-d)-1,3-dioxole-5-carboxylic acid]
  Inhibition (%) Product diluted at 1/100 in demineralized water: 10.00% ± 3.4
Initial solution diluted at 1/1000 in demineralized water
  Inhibition (%) Product diluted at 1/1000 in demineralized water: 0.25% ± 0.5
[3]
  Inhibition (%) Non-diluted product: 96.2% ± 1.04

## Magnesium gluconate
  Inhibition by substance diluted at 1% in demineralized water (%): 0%
  Inhibition by substance tested pure (%): 3.4%

## C[C@]12CCC(=O)C=C1CC[C@@H]1[C@@H]2[C@@H](O)C[C@@]2(C)[C@H]1CC[C@]2(O)C(=O)CO [Hydrocortisone]
[2]
  inhibition at 10000 µM: 4.5%

## Zinc gluconate
  Inhibition by substance diluted at 1% in demineralized water (%): 12.6%
  Inhibition by substance tested pure (%): 50%

## COc1ccc2c(c1)c(CC(=O)O)c(C)n2C(=O)c1ccc(Cl)cc1 [Indomethacin]
[1]
  inhibition at 1000 µM: 0%
[2]
  inhibition at 10000 µM: 25.7%
